Data on 55 compounds can be found in ChEMBL document CHEMBL6182838, “Structure-activity relationship expansion and microsomal stability assessment of the 2-morpholinobenzoic acid scaffold as antiproliferative phosphatidylcholine-specific phospholipase C inhibitors” (RSC Med Chem, 2025).

For test [1], the system named is HCT-116. Put plainly: Antiproliferative activity against human HCT-116 cells assessed as cell proliferation at 10 uM measured after 3 days incubation followed by incubated 5 hrs with [3H]-thymidine by 3H-thymidine incorporation assay relative to control. Type of test: functional. The following applies: HCT-116, 72 h, time 3 day, read-out: Activity. (In general: Dividing cells build labelled thymidine or BrdU into new DNA.)

The subject of test [2] is MDA-MB-231. The test is described as follows: Antiproliferative activity against human MDA-MB-231 cells assessed as cell proliferation at 10 uM measured after 3 days incubation followed by incubated 5 hrs with [3H]-thymidine by 3H-thymidine incorporation assay relative to control. Type of test: functional. The settings on record: MDA-MB-231, 72 h, time 3 day, read-out: Activity.

The test system of test [3] is Bacillus cereus. Put plainly: Inhibition of Bacillus cereus phosphatidylcholine specific phospholipase C (PC-PLC BC) assessed as enzyme activity by measuring formation of resorufin fluorophore 10 uM by Amplex-Red based fluorescence assay relative to control. Also noted: scale not given: the % may be the effect or the level left.

For the compound `COC(=O)c1ccc(NCc2ccc(OC)cc2)cc1N1CCOCC1`, the growth at 10 µM in test [1] was 70.4%; in test [2], 87.5%. Moreover, the Activity in test [3] was 104%.

Turning to `O=C(O)c1ccc(NCc2cccc(F)c2)cc1N1CCOCC1`, the growth at 10 µM in test [1] is 93.3%; in test [2], 92.4%. Besides, the Activity in test [3] was 84.9%.

Take `O=C(NO)c1ccc(NCc2ccccc2)cc1N1CCOCC1`: the growth at 10 µM turned out to be 89.7% in test [1] and 85.7% in test [2]. Further, the Activity in test [3] was found to be 43.4%.

With `COc1ccc(CNc2ccc(C3CCOCC3)c(C(=O)O)c2)cc1`, the results for the growth at 10 µM in test [1] and in test [2] were 93.6% and 102%, respectively. For the same compound, the Activity in test [3] came out at 104%.

In the case of `O=C(NO)c1ccc(NCc2ccc(Br)cc2)cc1N1CCOCC1`, the growth at 10 µM in test [1] came out at 18.1%; in test [2], 21.8%. In addition, the Activity in test [3] turned out to be 45.6%.

In the case of `O=C(NO)c1cc(NCc2ccccc2)ccc1C1CCOCC1`, the figures for the growth at 10 µM in test [1] and in test [2] were 80.2% and 90%, respectively. Besides, in test [3], the Activity was 80.7%.

On to `COC(=O)c1cc(NCc2ccccc2OC)ccc1C1CCOCC1`, for which the figures for the growth at 10 µM in test [1] and in test [2] were 31.2% and 22%, respectively. The Activity in test [3] is 94.7%.

As to `COC(=O)c1ccc(NCc2ccccc2F)cc1N1CCOCC1`, the growth at 10 µM in test [1] amounted to 67.4%; in test [2] it was 92.8%. In addition, the Activity in test [3] was determined as 105%.

Take `COC(=O)c1ccc(NCc2ccccc2)cc1N1CCOCC1`: the values for the growth at 10 µM in test [1] and in test [2] were 85.4% and 95.2%, respectively. Also, in test [3], the Activity was 102%.

As to `COC(=O)c1ccc(NCc2ccc(Br)cc2)cc1N1CCOCC1`, the growth at 10 µM in test [1] amounted to 52.5%; in test [2], 68.9%. In test [3], the Activity stood at 103%.

`O=C(NO)c1cc(NCc2ccc(F)cc2)ccc1C1CCOCC1`: the growth at 10 µM in test [1] amounted to 91.6%; in test [2], 86.6%. Besides, in test [3], the Activity was 93.7%.

In the case of `O=C(O)c1cc(NCc2cccc(Br)c2)ccc1C1CCOCC1`, the growth at 10 µM in test [1] turned out to be 104%; in test [2], 107%. For the same compound, the Activity in test [3] came to 113%.

In the case of `COc1ccccc1CNc1ccc(C(=O)NO)c(N2CCOCC2)c1`, the results for the growth at 10 µM in test [1] and in test [2] were 83.2% and 70.7%, respectively. Also, the Activity in test [3] was determined as 46.9%.

As to `O=C(O)c1cc(NCc2ccc(F)cc2)ccc1C1CCOCC1`, the growth at 10 µM amounted to 104% in test [1] and 107% in test [2]. Moreover, the Activity in test [3] is 102%.

For `O=C(O)c1ccc(NCc2ccccc2)cc1N1CCOCC1`, the figures for the growth at 10 µM in test [1] and in test [2] were 92.4% and 96.8%, respectively. Besides, in test [3], the Activity is 96.6%.

Take `O=C(O)c1ccc(NCc2ccc(Cl)cc2)cc1N1CCOCC1`: the growth at 10 µM in test [1] was determined as 88.2%; in test [2], 88.4%. For the same compound, the Activity in test [3] worked out at 32.4%.

`O=C(NO)c1ccc(NCc2ccccc2F)cc1N1CCOCC1`: the values for the growth at 10 µM in test [1] and in test [2] were 87.6% and 79.6%, respectively. Further, the Activity in test [3] turned out to be 50.9%.

Regarding `COC(=O)c1cc(NCc2ccccc2)ccc1C1CCOCC1`, the figures for the growth at 10 µM in test [1] and in test [2] were 19.8% and 29.3%, respectively. The Activity in test [3] is 77.2%.

Take `COC(=O)c1ccc(NCc2ccccc2OC)cc1N1CCOCC1`: the growth at 10 µM in test [1] came to 55.5%; in test [2] it was 73.6%. Besides, in test [3], the Activity was found to be 104%.

In the case of `O=C(NO)c1cc(NCc2ccc(Br)cc2)ccc1C1CCOCC1`, the growth at 10 µM in test [1] stood at 60.1%; in test [2], 61.6%. In addition, the Activity in test [3] is 71.4%.

Turning to `O=C(NO)c1cc(NCc2cccc(Cl)c2)ccc1N1CCOCC1`, the Activity in test [3] turned out to be 30.5%.

Regarding `O=C(O)c1cc(NCc2cccc(Cl)c2)ccc1N1CCOCC1`, in test [3], the Activity stood at 10.7%.

Turning to `COc1cccc(CNc2ccc(C(=O)O)c(N3CCOCC3)c2)c1`, the figures for the growth at 10 µM in test [1] and in test [2] were 103% and 101%, respectively. The Activity in test [3] was 106%.

On to `COC(=O)c1cc(NCc2ccccc2Br)ccc1C1CCOCC1`, for which the figures for the growth at 10 µM in test [1] and in test [2] were 20.3% and 16.4%, respectively. In addition, the Activity in test [3] stood at 112%.

On to `O=C(NO)c1ccc(NCc2cccc(F)c2)cc1N1CCOCC1`, for which the growth at 10 µM in test [1] stood at 84.3%; in test [2], 76.2%. In test [3], the Activity came to 49.1%.

Turning to `COC(=O)c1cc(NCc2cccc(F)c2)ccc1C1CCOCC1`, the growth at 10 µM in test [1] came out at 29.2%; in test [2], 41.3%. Besides, the Activity in test [3] worked out at 44.5%.

Consider `COc1ccccc1CNc1ccc(C(=O)O)c(N2CCOCC2)c1`, for which the growth at 10 µM turned out to be 102% in test [1] and 92.6% in test [2]. Also, the Activity in test [3] turned out to be 105%.

In the case of `COc1ccc(CNc2ccc(C3CCOCC3)c(C(=O)NO)c2)cc1`, the growth at 10 µM is 88.6% in test [1] and 82% in test [2]. The Activity in test [3] turned out to be 80.4%.

For the compound `COC(=O)c1ccc(NCc2cccc(Br)c2)cc1N1CCOCC1`, the growth at 10 µM turned out to be 34.7% in test [1] and 62.9% in test [2]. Besides, in test [3], the Activity was found to be 97.4%.

On to `O=C(NO)c1cc(NCc2ccccc2Br)ccc1N1CCOCC1`, for which the growth at 10 µM in test [2] was 7.4%.

Consider `COC(=O)c1cc(N(C)Cc2ccccc2Cl)ccc1N1CCOCC1`, for which the results for the growth at 10 µM in test [1] and in test [2] were 54.5% and 83.8%, respectively.

Turning to `COc1ccc(CNc2ccc(C(=O)O)c(N3CCOCC3)c2)cc1`, the figures for the growth at 10 µM in test [1] and in test [2] were 105% and 110%, respectively. The Activity in test [3] was found to be 106%.

On to `COC(=O)c1ccc(NCc2ccc(F)cc2)cc1N1CCOCC1`, for which the growth at 10 µM in test [1] was 65%; in test [2], 81.9%. In addition, in test [3], the Activity was 80.3%.

For the compound `COC(=O)c1ccc(NCc2ccccc2Cl)cc1N1CCOCC1`, the figures for the growth at 10 µM in test [1] and in test [2] were 43.2% and 70.4%, respectively. Also, the Activity in test [3] is 75.9%.

In the case of `O=C(O)c1ccc(NCc2ccc(F)cc2)cc1N1CCOCC1`, the growth at 10 µM is 91.6% in test [1] and 94.8% in test [2]. Also, the Activity in test [3] was found to be 62.4%.

With `COc1cccc(CNc2ccc(C3CCOCC3)c(C(=O)NO)c2)c1`, the growth at 10 µM in test [1] turned out to be 94.4%; in test [2] it was 89.2%. Moreover, the Activity in test [3] came to 80.6%.

With `O=C(O)c1cc(NCc2ccccc2Br)ccc1C1CCOCC1`, the values for the growth at 10 µM in test [1] and in test [2] were 99.5% and 108%, respectively. For the same compound, the Activity in test [3] turned out to be 116%.

On to `O=C(NO)c1ccc(NCc2ccccc2Br)cc1N1CCOCC1`, for which the growth at 10 µM in test [1] turned out to be 54.5%; in test [2] it was 30%. The Activity in test [3] amounted to 54.7%.

For `COc1cccc(CNc2ccc(C(=O)NO)c(N3CCOCC3)c2)c1`, the growth at 10 µM in test [1] was 77.4%; in test [2], 65.7%. The Activity in test [3] came out at 51.4%.

As to `O=C(NO)c1cc(NCc2ccc(Cl)cc2)ccc1C1CCOCC1`, the growth at 10 µM was determined as 69.9% in test [1] and 72.2% in test [2]. Moreover, the Activity in test [3] was determined as 92.5%.

Consider `O=C(NO)c1ccc(NCc2ccccc2Cl)cc1N1CCOCC1`, for which the results for the growth at 10 µM in test [1] and in test [2] were 68.4% and 41.8%, respectively. In addition, in test [3], the Activity is 54.1%.

On to `COC(=O)c1cc(NCc2ccccc2Cl)ccc1C1CCOCC1`, for which the growth at 10 µM in test [1] and in test [2] was 25.9% in each case. The Activity in test [3] came to 101%.

As for `COC(=O)c1cc(NCc2cccc(Br)c2)ccc1C1CCOCC1`, the growth at 10 µM in test [1] is 40.1%; in test [2], 58.8%. The Activity in test [3] was 109%.

With `O=C(O)c1ccc(NCc2ccccc2Br)cc1N1CCOCC1`, the growth at 10 µM in test [1] came out at 94.4%; in test [2], 90%. Further, in test [3], the Activity turned out to be 95.2%.

On to `COc1ccccc1CNc1ccc(C2CCOCC2)c(C(=O)NO)c1`, for which the growth at 10 µM in test [1] was determined as 93.3%; in test [2], 80.7%. In addition, the Activity in test [3] was found to be 80.7%.

In the case of `COc1ccc(CNc2ccc(C(=O)NO)c(N3CCOCC3)c2)cc1`, the growth at 10 µM came to 91.5% in test [1] and 76.9% in test [2]. Further, the Activity in test [3] is 45.5%.

Turning to `COC(=O)c1cc(NCc2cccc(Cl)c2)ccc1C1CCOCC1`, the growth at 10 µM in test [1] amounted to 37.2%; in test [2], 48.3%. For the same compound, in test [3], the Activity was 104%.

Take `O=C(NO)c1cc(NCc2cccc(Cl)c2)ccc1C1CCOCC1`: the growth at 10 µM in test [1] came to 83%; in test [2], 80.1%. In addition, the Activity in test [3] came out at 79.7%.

`O=C(O)c1cc(NCc2cccc(Cl)c2)ccc1C1CCOCC1`: the growth at 10 µM was found to be 103% in test [1] and 114% in test [2]. Besides, the Activity in test [3] amounted to 109%.

`O=C(NO)c1ccc(NCc2cccc(Cl)c2)cc1N1CCOCC1`: the figures for the growth at 10 µM in test [1] and in test [2] were 48.6% and 39.6%, respectively. Further, in test [3], the Activity came to 47.5%.

For `COC(=O)c1cc(NCc2ccc(Cl)cc2)ccc1C1CCOCC1`, the values for the growth at 10 µM in test [1] and in test [2] were 56.7% and 83.8%, respectively. Moreover, in test [3], the Activity came to 112%.

Take `COC(=O)c1cc(NCc2cccc(OC)c2)ccc1C1CCOCC1`: the growth at 10 µM in test [1] was determined as 62.5%; in test [2] it was 83.9%. For the same compound, in test [3], the Activity was 85.5%.

Turning to `COC(=O)c1ccc(NCc2ccccc2Br)cc1N1CCOCC1`, the growth at 10 µM was 29.5% in test [1] and 51.3% in test [2]. For the same compound, the Activity in test [3] amounted to 36.3%.

Regarding `O=C(NO)c1cc(NCc2cccc(Br)c2)ccc1C1CCOCC1`, the values for the growth at 10 µM in test [1] and in test [2] were 78.8% and 77.6%, respectively. In test [3], the Activity was found to be 75.2%.

`O=C(NO)c1cc(NCc2ccccc2Br)ccc1C1CCOCC1`: the growth at 10 µM in test [1] was determined as 78.3%; in test [2] it was 74%. Also, in test [3], the Activity was 75.5%.
